#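 Protocol summary: plate cells (96-well), add compound at 5 concentrations, incubate 48 h, interpolate endpoints linearly. TGI marks complete inhibition of growth.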
# Key:
# Test in all cases: NCI-60 cell line screen, 48 h
# [1] = test system: 786-0 renal
# [2] = test system: A549 NSCLC
# [3] = test system: ACHN renal
# [4] = test system: BT-549 breast
# [5] = test system: CAKI-1 renal
# [6] = test system: CCRF-CEM leukemia
# [7] = test system: COLO 205 colon
# [8] = test system: DU-145 prostate
# [9] = test system: EKVX NSCLC
# [10] = test system: HCC-2998 colon
# [11] = test system: HCT-116 colon
# [12] = test system: HCT-15 colon
# [13] = test system: HL-60(TB) leukemia
# [14] = test system: HOP-62 NSCLC
# [15] = test system: HOP-92 NSCLC
# [16] = test system: HS 578T breast
# [17] = test system: HT29 colon
# [18] = test system: IGROV1 ovarian
# [19] = test system: K-562 leukemia
# [20] = test system: KM12 colon
# [21] = test system: LOX IMVI melanoma
# [22] = test system: M14 melanoma
# [23] = test system: MALME-3M melanoma
# [24] = test system: MCF7 breast
# [25] = test system: MDA-MB-231 breast
# [26] = test system: MDA-MB-435
# [27] = test system: MDA-N
# [28] = test system: MOLT-4 leukemia
# [29] = test system: NCI-H226 lung
# [30] = test system: NCI-H23 lung
# [31] = test system: NCI-H460 lung
# [32] = test system: NCI-H522 lung
# [33] = test system: NCI/ADR-RES ovarian
# [34] = test system: OVCAR-3 ovarian
# [35] = test system: OVCAR-4 ovarian
# [36] = test system: OVCAR-5 ovarian
# [37] = test system: OVCAR-8 ovarian
# [38] = test system: PC-3 prostate
# [39] = test system: RPMI-8226 leukemia
# [40] = test system: SF-268 CNS
# [41] = test system: SF-295 CNS
# [42] = test system: SF-539 CNS
# [43] = test system: SK-MEL-2 melanoma
# [44] = test system: SK-MEL-28 melanoma
# [45] = test system: SK-OV-3 ovarian
# [46] = test system: SN12C renal
# [47] = test system: SNB-19 CNS
# [48] = test system: SNB-75 CNS
# [49] = test system: SR leukemia
# [50] = test system: SW-620 colon
# [51] = test system: TK-10 renal
# [52] = test system: U251 CNS
# [53] = test system: UACC-257 melanoma
# [54] = test system: UACC-62 melanoma
# [55] = test system: UO-31 renal
# [56] = test system: A498 renal
# [57] = test system: RXF 393 renal
# [58] = test system: SK-MEL-5 melanoma
# [59] = test system: T-47D breast
structure (smiles),measurement,setting,value
O=C1/C(=C/c2ccc(Cl)cc2)CCCc2ccccc21,TGI,[1],32.4 µM
same,TGI,[2],60 µM
same,TGI,[3],31.1 µM
same,TGI,[4],47.3 µM
same,TGI,[5],> 100 µM
same,TGI,[6],32.5 µM
same,TGI,[7],34.9 µM
same,TGI,[8],59 µM
same,TGI,[9],35.3 µM
same,TGI,[10],36.7 µM
same,TGI,[11],26.5 µM
same,TGI,[12],27.7 µM
same,TGI,[13],33.5 µM
same,TGI,[14],57.7 µM
same,TGI,[15],57.3 µM
same,TGI,[16],28.1 µM
same,TGI,[17],19.7 µM
same,TGI,[18],43.3 µM
same,TGI,[19],12 µM
same,TGI,[20],28.5 µM
same,TGI,[21],31 µM
same,TGI,[22],28.9 µM
same,TGI,[23],27.5 µM
same,TGI,[24],65.8 µM
same,TGI,[25],39.7 µM
same,TGI,[26],36.1 µM
same,TGI,[27],33.3 µM
same,TGI,[28],40 µM
same,TGI,[29],35.9 µM
same,TGI,[30],60.5 µM
same,TGI,[31],32.2 µM
same,TGI,[32],26.5 µM
same,TGI,[33],32.6 µM
same,TGI,[34],39.4 µM
same,TGI,[35],29.5 µM
same,TGI,[36],31.9 µM
same,TGI,[37],32.7 µM
same,TGI,[38],53.1 µM
same,TGI,[39],69 µM
same,TGI,[40],30.9 µM
same,TGI,[41],31.5 µM
same,TGI,[42],31.8 µM
same,TGI,[43],27.8 µM
same,TGI,[44],30.7 µM
same,TGI,[45],96.5 µM
same,TGI,[46],33.3 µM
same,TGI,[47],43.6 µM
same,TGI,[48],> 100 µM
same,TGI,[49],37 µM
same,TGI,[50],29 µM
same,TGI,[51],58.7 µM
same,TGI,[52],27.4 µM
same,TGI,[53],77.7 µM
same,TGI,[54],27.5 µM
same,TGI,[55],35.4 µM
CCc1n[nH]c(=O)n1-c1ccc2ccccc2c1,TGI,[1],> 100 µM
same,TGI,[56],> 100 µM
same,TGI,[2],> 100 µM
same,TGI,[3],> 100 µM
same,TGI,[5],> 100 µM
same,TGI,[6],> 100 µM
same,TGI,[7],> 100 µM
same,TGI,[8],> 100 µM
same,TGI,[9],> 100 µM
same,TGI,[10],> 100 µM
same,TGI,[11],> 100 µM
same,TGI,[12],> 100 µM
same,TGI,[14],> 100 µM
same,TGI,[15],> 100 µM
same,TGI,[16],> 100 µM
same,TGI,[17],> 100 µM
same,TGI,[18],> 100 µM
same,TGI,[19],> 100 µM
same,TGI,[20],> 100 µM
same,TGI,[21],> 100 µM
same,TGI,[22],> 100 µM
same,TGI,[23],> 100 µM
same,TGI,[24],> 100 µM
same,TGI,[25],> 100 µM
same,TGI,[26],> 100 µM
same,TGI,[27],> 100 µM
same,TGI,[28],> 100 µM
same,TGI,[29],> 100 µM
same,TGI,[30],> 100 µM
same,TGI,[31],> 100 µM
same,TGI,[32],> 100 µM
same,TGI,[33],> 100 µM
same,TGI,[34],> 100 µM
same,TGI,[35],> 100 µM
same,TGI,[36],> 100 µM
same,TGI,[37],> 100 µM
same,TGI,[39],> 100 µM
same,TGI,[57],> 100 µM
same,TGI,[40],> 100 µM
same,TGI,[41],> 100 µM
same,TGI,[42],> 100 µM
same,TGI,[43],> 100 µM
same,TGI,[44],> 100 µM
same,TGI,[58],> 100 µM
same,TGI,[45],> 100 µM
same,TGI,[46],> 100 µM
same,TGI,[47],> 100 µM
same,TGI,[48],> 100 µM
same,TGI,[49],> 100 µM
same,TGI,[50],> 100 µM
same,TGI,[59],> 100 µM
same,TGI,[51],> 100 µM
same,TGI,[52],> 100 µM
same,TGI,[53],> 100 µM
same,TGI,[54],> 100 µM
same,TGI,[55],> 100 µM
CNc1nncc2[nH]cnc12,TGI,[1],> 100 µM
same,TGI,[56],> 100 µM
same,TGI,[3],> 100 µM
same,TGI,[4],> 100 µM
same,TGI,[5],> 100 µM
same,TGI,[6],> 100 µM
same,TGI,[7],> 100 µM
same,TGI,[8],> 100 µM
same,TGI,[9],> 100 µM
same,TGI,[11],> 100 µM
same,TGI,[12],> 100 µM
same,TGI,[13],> 100 µM
same,TGI,[15],> 100 µM
same,TGI,[16],> 100 µM
same,TGI,[17],> 100 µM
same,TGI,[18],> 100 µM
same,TGI,[20],> 100 µM
same,TGI,[21],> 100 µM
same,TGI,[24],> 100 µM
same,TGI,[25],> 100 µM
same,TGI,[26],> 100 µM
same,TGI,[27],> 100 µM
same,TGI,[28],> 100 µM
same,TGI,[37],> 100 µM
same,TGI,[39],> 100 µM
same,TGI,[57],> 100 µM
same,TGI,[40],> 100 µM
same,TGI,[44],> 100 µM
same,TGI,[58],> 100 µM
same,TGI,[45],> 100 µM
same,TGI,[46],> 100 µM
same,TGI,[47],> 100 µM
same,TGI,[48],> 100 µM
same,TGI,[50],> 100 µM
same,TGI,[59],> 100 µM
same,TGI,[51],> 100 µM
same,TGI,[52],> 100 µM
same,TGI,[53],> 100 µM
same,TGI,[54],> 100 µM
same,TGI,[55],> 100 µM
Cc1cc(C[C@H]2O[C@@H]3OC(C)(C)O[C@@H]3[C@H]3OC(C)(C)O[C@H]32)c2ccccc2n1,TGI,[1],> 100 µM
same,TGI,[56],> 100 µM
same,TGI,[2],> 100 µM
same,TGI,[3],> 100 µM
same,TGI,[5],> 100 µM
same,TGI,[6],> 100 µM
same,TGI,[7],> 100 µM
same,TGI,[8],> 100 µM
same,TGI,[9],> 100 µM
same,TGI,[10],> 100 µM
same,TGI,[11],> 100 µM
same,TGI,[12],> 100 µM
same,TGI,[13],51.5 µM
same,TGI,[14],> 100 µM
same,TGI,[16],> 100 µM
same,TGI,[17],> 100 µM
same,TGI,[18],> 100 µM
same,TGI,[19],> 100 µM
same,TGI,[20],> 100 µM
same,TGI,[21],> 100 µM
same,TGI,[23],> 100 µM
same,TGI,[26],> 100 µM
same,TGI,[27],> 100 µM
same,TGI,[28],> 100 µM
same,TGI,[29],> 100 µM
same,TGI,[30],> 100 µM
same,TGI,[31],> 100 µM
same,TGI,[32],94.4 µM
same,TGI,[33],> 100 µM
same,TGI,[35],> 100 µM
same,TGI,[36],> 100 µM
same,TGI,[37],> 100 µM
same,TGI,[38],> 100 µM
same,TGI,[39],> 100 µM
same,TGI,[57],> 100 µM
same,TGI,[40],> 100 µM
same,TGI,[41],> 100 µM
same,TGI,[42],> 100 µM
same,TGI,[43],> 100 µM
same,TGI,[44],> 100 µM
same,TGI,[58],> 100 µM
same,TGI,[45],> 100 µM
same,TGI,[46],> 100 µM
same,TGI,[47],> 100 µM
same,TGI,[48],> 100 µM
same,TGI,[49],> 100 µM
same,TGI,[50],> 100 µM
same,TGI,[59],> 100 µM
same,TGI,[51],> 100 µM
same,TGI,[52],> 100 µM
same,TGI,[53],> 100 µM
same,TGI,[54],> 100 µM
same,TGI,[55],> 100 µM

# From PubChem BioAssay (NCI)
